Experimental data taken from patent publication US20160158252A1, “PHARMACEUTICAL COMPOSITION AND USE OF DIETHYL (2-CYANOETHYL)PHOSPHONATE” (Olatec Therapeutics LLC, priority 2013, published 2016).
Like-named read-outs stand apart in the source and are kept apart here.

How the values were obtained:
[1] = test system: arachidonic acid-induced ear swelling; experiment: Arachidonic acid-induced ear swelling in mice (intraperitoneal administration); assay type: in vivo; details: measured at 90 minutes
Protocol: The protocols of this experiment were similar to Example 3, except the following differences. Test substance diethyl (2-cyanoethyl) phosphonate was dissolved in PBS to generate 1, 3 and 10 mg/mL testing solutions. Vehicle (PBS) at 10 mL/kg and diethyl (2-cyanoethyl) phosphonate at 10 mL/kg (10, 30, and 100 mg/kg) were administered intraperitoneally at 1 hour, and again 15 minutes before arachidonic acid (0.5 mg/ear) challenge. The positive control dexamethasone was administered orally 3 hours before arachidonic acid.
An ANOVA was done, and if p<0.05, a Dunnett's t test was employed to calculate significant difference between vehicle control and treated groups. Significance is set at P<0.05 level.
(§1) An ANOVA was done, and if p<0.05, a Dunnett's t test was employed to calculate significant difference between vehicle control and test compound treated groups. A pairwise Student's t test was used to calculate differences between the dexamethasone group and the control group. Significance is set at P<0.05 level.

[2] = test system: arachidonic acid-induced ear swelling; experiment: Topical arachidonic acid-induced ear swelling model in mice (topical administration); assay type: in vivo, mice (male ICR); details: 90 minutes after arachidonic acid
Protocol: The test compound, indomethacin (positive control), and vehicle (acetone:ethanol/1:1) were evaluated for anti-inflammatory activity in a topical arachidonic acid-induced ear swelling model in mice.
Male ICR mice weighing 22±2 g were used and randomly divided; the test compound and vehicle control had 10 mice, and indomethacin had 5 mice. Arachidonic Acid (0.5 mg in 20 μl of acetone:ethanol/1:1) was applied topically to the anterior and posterior surfaces of the right ear of each mice. Test substances (in vehicle) and vehicle, as listed in Table 3 were similarly applied 30 min before and 15 min after arachidonic acid application. The thickness of the right ear and the left ear was measured and the difference calculated as an indication of the inflammation in the right ear. Ear swelling was measured by a Dyer model micrometer gauge at 60 and 90 minutes after arachidonic acid application as an index of inflammation. Percent inhibition was calculated according to the formula: Ic−It/Ic×100, where Ic and It refers to increase of ear thickness (mm) in control and treated mice, respectively. An ANOVA was done, and if p<0.05, a Dunnett's t test was employed to calculate significant difference between vehicle control and test compound treated groups. A pairwise Student's t test was used to calculate differences between the indomethacin group and the control group. Significance is set at P<0.05 level.

[3] = test system: tail flick reaction to heat (49° C. water bath); experiment: Tail flick test in mice (oral administration); assay type: in vivo
Protocol: Tail flick test is a test of the pain response in animals. Tail flick test is used in basic pain research and to measure the effectiveness of analgesics, by observing the tail flick reaction to heat in an animal. This test assesses the nociceptive response to a local pain stimulus, and the ability of a drug to inhibit this response.
Vehicle control (water) and test compound diethyl (2-cyanoethyl) phosphonate in water were administered by oral gavage to mice with a volume of 10 mL/kg, twice, at 60 and 15 minutes before the first tail flick measurement. The test compound was administered at a dosage of 10, 30, or 100 mg/kg in water. The positive control compound morphine was administered by subcutaneous injection at 8 mg/kg with a volume of 8 mL/kg, at 15 minutes before the first tail flick measurement. Each group had 10 mice.
The response of mice to heat stimulus was evaluated by measuring the time of tail-flick or tail-flick latency from 49° C. water bath. Briefly, the animal was placed in a restrainer with its tail hanging down. Approximately 2 inches of the tail was immersed in a beaker of water at 38±1° C. for about 30 seconds, and this was done twice to acclimate the animal to the procedure.
Subsequently, approximately 2 inches of the tail was immersed in a beaker of water at 49±1° C., at which point a timer was started.
Tail flick measurements were made 60, 80, 100, and 120 minutes post administration of the first dosage of test compound. An ANOVA was done, and if p<0.05, a Dunnett's t test was employed to calculate significant difference between vehicle control and test compound treated groups. A pairwise Student's t test was used to calculate differences between the morphine group and the control group. […] Analysis with p-values <0.05 is considered significant.

[4] = test system: formalin-induced paw licking; experiment: Formalin test in mice (oral administration); assay type: in vivo, mice (male CD-1); details: for Licks per min (Between 0-10 min): early phase, vehicle 3.3; for Licks per min (Between 10-40 min): late phase, vehicle 1.4
Protocol: Formalin test is a model of continuous pain resulting from formalin-induced tissue injury. Nociceptive and inflammatory pain was induced by injection of a dilute formalin solution into the paw, resulting in nocifensive behavior including paw flinching. The formalin model encompasses inflammatory, neurogenic, and central mechanism of pain. The early phase of pain (from 0 to about 10 minutes) is due to nociceptive mechanism and the late phase of pain (from 10-40 minutes) is due to a combination of inflammatory pain and nociceptive mechanism. Pain behavior is assessed using manual paw licking measurements. The endpoints of the study are the number of paw licking events. (Hunskaar et al., Pain, 30:103-114, 1987; Li et al., Molecular Pain, 6:11, 2010)
Male CD-1 mice, about 34 g, were used in the study. Mice had free access to food and water, were maintained on a 12 hour:12 hour light/dark schedule for the entire duration of the study, and housed in soft bedding five per cage.
Immediately prior to testing (at time 0), mice were restrained in a cloth and injected with 20 μL of a 5% formalin solution, subcutaneously into the dorsal surface of the left hind paw. Vehicle control (n=10, water) and test compound diethyl (2-cyanoethyl) phosphonate (n=9, in water) were administered by oral gavage with a volume of 10 mL/kg to mice. The amounts of test compound were 10, 30, or 100 mg/kg per dose.
Positive control morphine was administered by subcutaneous injection at 4 mg/kg with a volume of 4 mL/kg to mice (n=10). […] The purpose of morphine is not to serve as a comparison with the test compound.
Morphine was subcutaneously administered once 15 minutes before formalin injection. The test compounds and vehicle control were orally administered twice (BID), at 60 and 15 minutes before formalin injection at time zero.
Following formalin injection, animals were placed in individual cages, and manually observed for 60 minutes. The licking events were recorded in five minute intervals continuously for a total of 60 minutes.
as §1, with “The number of licking events per minute was calculated between 0-10 minutes and 10-40 minutes for vehicle, positive control, and test compound. An” for “An”, “morphine” for “dexamethasone”

[5] = test system: formalin-induced paw licking; details: for Licks per min (Between 0-10 min) / Licks per min (Between 10-40 min): 375 mM topical BID; for Licks per min (Between 0-10 min): early phase, vehicle 4.4; for Licks per min (Between 10-40 min): late phase, vehicle 1.7
Protocol: The test compound diethyl (2-cyanoethyl) phosphonate (375 mM in vehicle, n=16) and vehicle control (acetone:ethanol 1:1, n=16) were administered topically by submerging the mouse left hind paw in the respective solution for about 30 seconds. The paw was then withdrawn and wiped with tissue to avoid excess dermal drying.
Positive control morphine was administered by subcutaneous injection at 4 mg/kg with a volume of 4 mL/kg to mice (n=16).
Morphine was subcutaneously administered once 15 minutes before formalin injection. The test compounds and vehicle control were topically administered twice (BID), at 90 and 15 minutes before formalin injection.
Following formalin injection, animals were placed in individual cages, and manually observed for 60 minutes. The licking events were recorded in five minute intervals continuously for a total of 40 minutes.
The number of licking events per minute was calculated between 0-10 minutes and 10-40 minutes for vehicle, positive control, and test compound. A two-sample t-test was done to compare the vehicle group with the test compound group. Significance is set at P<0.05 level. The same statistics were done comparing the vehicle group with the positive control group.

[6] = test system: IL-6, TNFα, IFNγ, MIP-2 and RANTES; experiment: Pro-inflammatory cytokine release in rat challenged in vivo with lipopolysaccharide; details: given orally to rat, LPS challenge in vivo
[7] = 100 mg/kg oral BID, listed as test compound

SMILES: C[C@@H]1C[C@H]2[C@@H]3CCC4=CC(=O)C=C[C@]4(C)[C@@]3(F)[C@@H](O)C[C@]2(C)[C@@]1(O)C(=O)CO [Dexamethasone, dexamethasone, reference compound]
- % Inhibition of ear swelling ([1]; 0.3 mg/kg orally 3 hours before arachidonic acid): 29%

SMILES: CCOP(=O)(CCC#N)OCC [Diethyl (2-cyanoethyl) phosphonate, Diethyl (2-cyanoethyl)phosphonate]
- % Inhibition of ear swelling ([2]; 375 mM in acetone:ethanol (1:1), 20 μL (1.4 mg/ear) applied twice topically): 55%
- % Inhibition of ear swelling ([2]; 375 mM in acetone:ethanol (1:1), 20 μL (1.4 mg/ear) applied twice topically, listed as active compound): anti-inflammatory
- % Inhibition of ear swelling ([2]; 375 mM in acetone:ethanol (1:1), 20 μL (1.4 mg/ear) applied twice topically, listed as tested compound): 55%
- % Inhibition of ear swelling ([1]; 10 mg/kg intraperitoneally, twice): −8%
- % Inhibition of ear swelling ([1]; 30 mg/kg intraperitoneally, twice): 0%
- % Inhibition of ear swelling ([1]; 100 mg/kg intraperitoneally, twice): 34%
- % Inhibition of ear swelling ([1]; 100 mg/kg intraperitoneally, twice, listed as tested compound): 37%
- Tail flick latency vs vehicle-treated mice ([3]; 30 mg/kg oral, twice, 60, 80, 100, 120 minutes): statistically significant tail flick latency at 60 and 80 minutes
- Tail flick latency vs vehicle-treated mice ([3]; 100 mg/kg oral, twice, 60, 80, 100, 120 minutes): statistically significant tail flick latency at 60 and 100 minutes
- Licking events, difference from control ([4]; 10 mg/kg oral BID): did not show a statically significant difference from control
- Licking events, difference from control ([4]; 30 mg/kg oral BID): did not show a statically significant difference from control
- Efficacy after 40 minutes (licking events) ([4]; 100 mg/kg oral BID): did not last after 40 minutes
- Licks per min (Between 0-10 min) ([4]; 100 mg/kg oral BID): 3.1 licks per min
- Licks per min (Between 0-10 min) [4, 7]: no statistically significant difference
- Licks per min (Between 10-40 min) ([4]; 100 mg/kg oral BID): 0.59 licks per min
- Licks per min (Between 10-40 min) [4, 7]: statistically significant (p<0.05) reduction
- Licks per min (Between 0-10 min) [5]: 4.0 licks per min
- Licks per min (Between 0-10 min) ([5]; listed as test compound): no statistically significant difference
- Licks per min (Between 10-40 min) [5]: 1.1 licks per min
- Licks per min (Between 10-40 min) ([5]; listed as test compound): statistically significant (p<0.05) reduction
- Paw licking events after topical application alone without injection of formalin ([5]; 375 mM topical, no formalin): negligible number of paw licking events
- Pro-inflammatory cytokine release (IL-6, TNFα, IFNγ, MIP-2 and RANTES) [6]: effective in inhibiting pro-inflammatory cytokine release

SMILES: COc1ccc2c(c1)c(CC(=O)O)c(C)n2C(=O)c1ccc(Cl)cc1 [Indomethacin, indomethacin, reference compound]
- % Inhibition of ear swelling ([2]; 14 mM, 20 μL (0.1 mg/ear) applied twice topically): 58%

SMILES: CN1CC[C@]23c4c5ccc(O)c4O[C@H]2[C@@H](O)C=C[C@H]3[C@H]1C5 [Morphine, morphine, reference compound]
- Tail flick latency vs vehicle-treated mice ([3]; mouse, in vivo): statistically significant tail flick latency at all measured time points
- Efficacy after 40 minutes (licking events) ([4]; mouse, in vivo): did not last after 40 minutes
